Results on eight compounds are retold here after patent US20040038965A1, “Protease inhibitors” (priority 2003, published 2004).

In one assay the target is T1, human Cathepsin K (Homo sapiens, UniProt P43235).
T1 sequence (P43235 115-329): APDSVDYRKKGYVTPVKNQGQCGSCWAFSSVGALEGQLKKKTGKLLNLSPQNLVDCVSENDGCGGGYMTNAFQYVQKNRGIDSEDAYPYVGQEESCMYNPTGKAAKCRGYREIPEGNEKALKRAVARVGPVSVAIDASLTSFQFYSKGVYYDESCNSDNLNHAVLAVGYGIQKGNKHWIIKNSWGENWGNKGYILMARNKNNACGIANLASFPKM
The assay is described as follows: Cathepsin K inhibition, fluorogenic peptide substrate, progress curve method. Type of assay: biochemical. The note with it: human recombinant enzyme, pH 5.5. The procedure: Determination of Cathepsin K Proteolytic Catalytic Activity
All assays for cathepsin K were carried out with human recombinant enzyme. Standard assay conditions for the determination of kinetic constants used a fluorogenic peptide substrate, typically Cbz-Phe-Arg-AMC, and were determined in […] Na acetate at pH 5.5 containing 20 mM cysteine and 5 mM EDTA. Stock substrate solutions were prepared at concentrations of 10 or 20 mM in DMSO with 20 uM final substrate concentration in the assays. All assays contained 10% DMSO. […] All assays were conducted at ambient temperature. Product fluorescence (excitation at 360 nm; emission at 460 nm) was monitored with a Perceptive Biosystems Cytofluor II fluorescent plate reader. Product progress curves were generated over 20 to 30 minutes following formation of AMC product.
Potential inhibitors were evaluated using the progress curve method. Assays were carried out in the presence of variable concentrations of test compound. Reactions were initiated by addition of enzyme to buffered solutions of inhibitor and substrate. Data analysis was conducted according to one of two procedures depending on the appearance of the progress curves in the presence of inhibitors. For those-compounds whose progress curves were linear, apparent inhibition constants (Ki,app) were calculated according to equation 1 (Brandt et al., Biochemitsry, 1989, 28, 140): […]
v=VmA/[Ka(1+[…])+A] (1) where v is the velocity of the reaction with maximal velocity Vm, A is the concentration of substrate with Michaelis constant of Ka, and I is the concentration of inhibitor.
[AMC]=vsst+(v0−vss)[1−exp(−kobst)]]/kobs (2) where [AMC] is the concentration of product formed over time t, v0 is the initial reaction velocity and vss is the final steady state rate. Values for kobs were then analyzed as a linear function of inhibitor concentration to generate an apparent second order rate constant (kobs/inhibitor concentration or kobs/[I]) describing the time-dependent inhibition. A complete discussion of this kinetic treatment has been fully described (Morrison et al., Adv. Enzymol. Relat. Areas Mol. Biol., 1988, 61, 201).

The next assay concerns the target human Cathepsin B (Homo sapiens, UniProt P07858). The experiment in a line: Cathepsin B inhibition, progress curve method. It counts as biochemical. The procedure: (§1) Potential inhibitors were evaluated using the progress curve method. Assays were carried out in the presence of variable concentrations of test compound. Reactions were initiated by addition of enzyme to buffered solutions of inhibitor and substrate. Data analysis was conducted according to one of two procedures depending on the appearance of the progress curves in the presence of inhibitors. For those-compounds whose progress curves were linear, apparent inhibition constants (Ki,app) were calculated according to equation 1 (Brandt et al., Biochemitsry, 1989, 28, 140):
(§2) v=VmA/[Ka(1+1/Ki, app)+A] (1)
(§3) where v is the velocity of the reaction with maximal velocity Vm, A is the concentration of substrate with Michaelis constant of Ka, and I is the concentration of inhibitor.

For a further assay, the target named is human Cathepsin S (Homo sapiens, UniProt P25774). The assay is described as follows: Cathepsin S inhibition, progress curve method. Type of assay: biochemical. The method, then:
as §1, §2, §3

Another assay addresses human Cathepsin L (Homo sapiens, UniProt P07711). The experiment in a line: Cathepsin L inhibition, progress curve method. It counts as biochemical. The procedure: as §1, §2, §3
Assay [1] relates to bone resorption. The note with it: rats on calcium deficient diets, serum calcium; cited from earlier work.
For assay [2], the system named is bone resorption. The note with it: mouse bone organ culture; cited from earlier work.
For assay [3], the system named is PTH stimulated bone resorption. The note with it: mouse calvariae; cited from earlier work.

Chain of human Cathepsin S (P25774 115-331): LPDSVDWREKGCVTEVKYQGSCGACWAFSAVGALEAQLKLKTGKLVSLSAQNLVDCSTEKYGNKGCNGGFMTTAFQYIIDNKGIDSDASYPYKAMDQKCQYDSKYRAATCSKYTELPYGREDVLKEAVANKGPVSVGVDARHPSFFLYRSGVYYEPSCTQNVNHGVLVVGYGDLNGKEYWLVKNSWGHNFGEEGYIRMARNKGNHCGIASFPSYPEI
Chain of human Cathepsin L (P07711 114-333): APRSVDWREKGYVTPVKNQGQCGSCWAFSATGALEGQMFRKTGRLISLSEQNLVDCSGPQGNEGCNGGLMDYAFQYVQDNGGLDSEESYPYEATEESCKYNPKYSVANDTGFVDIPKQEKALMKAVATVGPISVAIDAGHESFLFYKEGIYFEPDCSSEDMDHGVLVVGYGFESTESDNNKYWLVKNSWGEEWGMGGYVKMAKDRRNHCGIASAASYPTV

The term Ki denotes a measure of affinity in units of concentration, obtained from inhibition or displacement. Take `O=C(NC1(C(=O)N[C@H]2CCCN(S(=O)(=O)c3ccccn3)CC2=O)CCCCC1)c1cc2ccccc2o1` [Example 1, Benzofaran-2-carboxylic Acid {1-[(S)-3-oxo-1-(pyridine-2-sulfonel)-azepan-4-ylcarbamoyl]-cyclohexyl}-amide]: the inhibition constant (Ki) on human Cathepsin K came to 1.4 nM; on human Cathepsin B, 926 nM; on human Cathepsin S, 390 nM; at human Cathepsin L, 239 nM.

For `CC(C)C[C@H](NC(=O)[C@H]1O[C@@H]1C(=O)O)C(=O)NCCCCN=C(N)N` [Example E-64, E-64], the “prevention of bone resorption in vivo” value in the assay on bone resorption [1] is given as “effective at preventing bone resorption in vivo”.

In the case of `O=C(NC1(C(=O)N[C@@H]2CCCN(S(=O)(=O)c3ccccn3)CC2=O)CCCCC1)c1cc2ccccc2o1` [Example 1 (R), Benzofuran-2-carboxylic acid {1-[(R)-3-oxo-1-(pyridine-2-sulfonyl)-azepan-4-ylcarbamoyl]-cyclohexyl}-amide], the Ki at human Cathepsin K was more than 26 nM.

On to `CC(=O)N[C@@H](CC(C)C)C(=O)N[C@@H](CC(C)C)C(=O)N[C@H](C=O)CCCNC(=N)N` [leupeptin], for which the “prevention of bone resorption” value in the assay with bone resorption [2] is “prevent bone resorption”. The “prevention of bone resorption in vivo” value in the assay on bone resorption [1] was “effective at preventing bone resorption in vivo”.

For the compound `C[C@H](NC(=O)[C@H](Cc1ccccc1)NC(=O)OCc1ccccc1)C(=O)C=[N+]=[N-]` [Z-Phe-Ala-CHN2], the “prevention of bone resorption” value in the assay on bone resorption [2] is given as “prevent bone resorption”.

Turning to `C[C@@H]1CC[C@H](NC(=O)C2(NC(=O)c3cc4sccc4s3)CCCCC2)C(=O)CN1S(=O)(=O)c1ccccn1` [Example 5, Thieno[3,2-b]thiophene-2-carboxylic Acid {1-[(4S,7R)-7-methyl-3-oxo-1-(pyridine-2-sulfonyl)-azepan-4-ylcarbamoyl]-cyclohexyl}-amide], the Ki on human Cathepsin K is 0.3 nM; at human Cathepsin B, 173 nM; on human Cathepsin S, 175 nM; on human Cathepsin L, 69 nM.

As for cystatin, the “inhibition of PTH stimulated bone resorption” value in assay [3] was “inhibits PTH stimulated bone resorption”.

As for `O=C(NC1(C(=O)N[C@H]2CCCN(S(=O)(=O)c3ccccn3)CC2=O)CCCCC1)c1cc2sccc2s1` (racemic) [Example 2, Thieno[3,2-b]thiophene-2-carboxylic Acid {1-[(+/−)-3-oxo-1-(pyridine-2-sulfonyl)-azepan-4-ylcarbamorl]-cyclohexyl}-amide], the Ki came out at 0.58 nM on human Cathepsin K, 434 nM on human Cathepsin B, 632 nM on human Cathepsin S and 270 nM at human Cathepsin L.
